Data from patent US10947196B2, “Beta adrenergic agonist and methods of using the same” (CURASEN THERAPEUTICS, INC., priority 2019, dated 2021).
Like-named read-outs stand apart in the source and are kept apart here.

Columns and labels:
[1] = Hepatocyte stability (monkey); assay type: in vitro ADME; settings: 0.5×10^6 viable cells/mL
Method: 10 mM and 100 μM stock solutions of test compound(s) and a positive control were prepared in appropriate solvent (DMSO). In separate conical tubes, the 10 mM test compound and the positive control were diluted to 100 μM by combining 198 μL of 50% acetonitrile/50% water and 2 μL of 10 mM stock. The 100 μM test compound and the positive control were diluted to 30 μM by combining 140 μL of 50% acetonitrile/50% water and 60 μL of 100 μM stock solution. The 100 μM test compound and the positive control were diluted to 10 μM by combining 180 μL of 50% acetonitrile/50% water and 20 μL of 100 μM stock solution. The 100 μM test compound and the positive control were diluted to 3 μM by combining 194 μL of 50% acetonitrile/50% water and 6 μL of 100 μM stock solution.
Incubation medium (William's E Medium supplemented with GlutaMAX) and hepatocyte thawing medium was placed in a 37° C. water bath, and allowed to warm for at least 15 minutes prior to use. […]
Using AOPI staining solution, cells were counted and the viable cell density was determined. […]
All calculations were carried out using Microsoft Excel. Peak areas were determined from extracted ion chromatograms. […]
The in vitro half-life (in vitro t1/2) was determined from the slope value: in vitro t1/2=0.693/k

[2] = target: B3-AR (Homo sapiens (Human), UniProt P13945); experiment: cAMP potency assay, B3-AR expressing CHO-K1 cells; assay type: cell-based
Chain of B3-AR (P13945 whole entry, species assumed): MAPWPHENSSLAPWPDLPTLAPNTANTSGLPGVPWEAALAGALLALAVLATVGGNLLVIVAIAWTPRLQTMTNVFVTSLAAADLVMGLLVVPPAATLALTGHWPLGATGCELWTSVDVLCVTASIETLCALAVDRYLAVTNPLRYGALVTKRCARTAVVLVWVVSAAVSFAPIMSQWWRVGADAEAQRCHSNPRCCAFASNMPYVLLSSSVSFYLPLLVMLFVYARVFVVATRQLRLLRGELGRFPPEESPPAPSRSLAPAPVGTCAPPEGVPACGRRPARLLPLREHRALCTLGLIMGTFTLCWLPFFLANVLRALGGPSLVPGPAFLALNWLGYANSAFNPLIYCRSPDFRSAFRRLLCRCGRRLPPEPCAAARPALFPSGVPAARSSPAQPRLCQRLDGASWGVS

[3] = read-out: Average pEC50 [Receptor subtype: B3-AR, Cell type: CHO-K1] (converted)

| EC50 ([2]; read-out: Average EC50 [Receptor subtype: B3-AR, Cell type: CHO-K1]) | SMILES | Hepatocyte stability, Monkey [1] | EC50 [2, 3] |
| --- | --- | --- | --- |
| 100 to 1000 nM | CC(C)(C)NC[C@H](O)c1cccc(C#N)n1 [Compound 03-5, (S)-6-(2-(tert-butylamino)-1-hydroxyethyl)picolinonitrile] | 1.88 μL/min/10^6 cells | > 1000 nM |
|  | Cc1ncccc1[C@@H](O)CNC(C)(C)C [Compound 03-115] | 1.26 μL/min/10^6 cells | > 1000 nM |
